For the first assay, the target named is T1, human M4 receptor (Homo sapiens, UniProt P08173).
T1 construct: expressed in transfected cells; host or cells: CHO cells
T1 sequence (P08173 1-479): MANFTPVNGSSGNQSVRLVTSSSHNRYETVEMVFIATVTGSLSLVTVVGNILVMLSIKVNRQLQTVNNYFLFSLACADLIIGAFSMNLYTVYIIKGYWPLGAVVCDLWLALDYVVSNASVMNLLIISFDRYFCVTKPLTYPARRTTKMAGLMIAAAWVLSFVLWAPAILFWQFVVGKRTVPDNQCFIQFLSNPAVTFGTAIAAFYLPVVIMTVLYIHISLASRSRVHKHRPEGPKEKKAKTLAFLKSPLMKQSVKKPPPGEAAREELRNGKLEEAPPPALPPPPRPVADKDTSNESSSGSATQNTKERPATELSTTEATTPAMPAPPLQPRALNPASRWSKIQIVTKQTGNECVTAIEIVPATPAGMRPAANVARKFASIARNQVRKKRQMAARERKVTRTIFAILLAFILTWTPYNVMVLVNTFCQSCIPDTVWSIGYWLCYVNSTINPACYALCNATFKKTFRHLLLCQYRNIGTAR
In words: Radioligand ([3H]N-methylscopolamine) binding assay, membranes from CHO cells expressing human M4 receptor.
Conditions: not given
On the procedure: Binding affinity (Ki) for the compounds was measured by inhibition of radioligand binding to membranes from CHO cells expressing human M4 receptor. Membranes were prepared by nitrogen cavitation and differential centrifugation as previously described (Hoare et al., Mol. Pharmacol. 2003 March; 63(3): 751-65). The radioligand employed was tritiated N-methylscopolamine, used at a concentration of 1.5 nM. A dose-response of twelve concentrations of compound was used, ranging from […]. The assay buffer was 50 mM HEPES, 100 mM NaCl, 5 mM MgCl2, 1 mM ethylenediaminetetraacetic acid, pH-adjusted to pH 7.4. Membranes, radioligand and compound were incubated together for 90 minutes at 37° C., in a total volume of 150 μL in a 96-well plate. Receptor-bound radioligand was then collected by harvesting the assay over glass fiber filters pretreated with polyethylenimine to trap the cell membranes, using rapid vacuum filtration. Harvesting and radioactivity counting was conducted as previously described (see, e.g., Hoare et al., Mol. Pharmacol. 2003 63(3):751-65); Erratum at Mol. Pharmacol. 2005 July; 68(1): 260).
With `O=C(OC1CC2(C1)CN(Cc1ccccc1)C2)N1C2COCC1CN(c1cnc(C(F)(F)F)cn1)C2` [Compound 168, 2-benzyl-2-azaspiro[3.3]heptan-6-yl 7-[5-(trifluoromethyl)pyrazin-2-yl]-3-oxa-7,9-diazabicyclo[3.3.1]nonane-9-carboxylate], the Ki is 100 to 1000 nM.

The assay is the same for the next values; noted with them: Ki against human M4 receptor; membranes from CHO cells; tritiated N-methylscopolamine 1.5 nM; read-out: K.
For the compound `C[C@@H]1CN(c2ncc(C(F)(F)F)cn2)C[C@H](C)N1C(=O)OC1CC2(C1)CN(CC1CC3C=CC1C3)C2` (stereo partly drawn) [Compound 155, 2-{bicyclo[2.2.1]hept-5-en-2-ylmethyl}-2-azaspiro[3.3]heptan-6-yl (2R,6S)-2,6-dimethyl-4-[5-(trifluoromethyl)pyrimidin-2-yl]piperazine-1-carboxylate], the Ki fell in the range of 10 to 100 nM. On to `C[C@@H]1CN(c2ncc(F)cn2)C[C@H](C)N1C(=O)OC1CC2(C1)CN(Cc1ccccc1)C2` [Compound 157, 2-benzyl-2-azaspiro[3.3]heptan-6-yl (2R,6S)-4-(5-fluoropyrimidin-2-yl)-2,6-dimethylpiperazine-1-carboxylate], for which the Ki was < 10 nM. Consider `C[C@@H]1CN(c2ncc(F)cn2)C[C@@H](C)N1C(=O)OC1CC2(C1)CN(Cc1ccccc1)C2` [Compound 158, 2-benzyl-2-azaspiro[3.3]heptan-6-yl (2R,6R)-4-(5-fluoropyrimidin 2-yl)-2,6-dimethylpiperazine-1-carboxylate], for which the Ki was 100 to 1000 nM. With `C[C@@H]1CN(c2ncc(C#N)cn2)C[C@@H](C)N1C(=O)OC1CC2(C1)CN(Cc1ccccc1)C2` [Compound 159, 2-benzyl-2-azaspiro[3.3]heptan-6-yl (2R,6R)-4-(5-cyanopyrimidin-2-yl)-2,6-dimethylpiperazine-1-carboxylate], the Ki was in the range of 100 to 1000 nM.

As to `C[C@@H]1CN(c2ccc([N+](=O)[O-])cn2)C[C@H](C)N1C(=O)OC1CC2(C1)CN(Cc1ccccc1)C2` [Compound 163, 2-benzyl-2-azaspiro[3.3]heptan-6-yl (2R,6S)-2,6-dimethyl-4-(5-nitropyridin-2-yl)piperazine-1-carboxylate], the Ki fell in the range of 10 to 100 nM. On the same count and under the same terms, the result for `C[C@@H]1CN(c2ccc([N+](=O)[O-])cn2)C[C@@H](C)N1C(=O)OC1CC2(C1)CN(Cc1ccccc1)C2` [Compound 164, 2-benzyl-2-azaspiro[3.3]heptan-6-yl (2R,6R)-2,6-dimethyl-4-(5-nitropyridin-2-yl)piperazine-1-carboxylate] reads 100 to 1000 nM; that for `C[C@@H]1CN(c2cncc(C(F)(F)F)n2)C[C@@H](C)N1C(=O)OC1CC2(C1)CN(Cc1ccccc1)C2` [Compound 166, 2-benzyl-2-azaspiro[3.3]heptan-6-yl (2R,6R)-2,6-dimethyl-4-[6-(trifluoromethyl)pyrazin-2-yl]piperazine-1-carboxylate], 100 to 1000 nM. Still for that read-out and setting: in the case of `O=C(OC1CC2(C1)CN(Cc1ccccc1)C2)N1C2COCC1CN(c1ncc(C(F)(F)F)cn1)C2` [Compound 167, 2-benzyl-2-azaspiro[3.3]heptan-6-yl 7-[5-(trifluoromethyl)pyrimidin-2-yl]-3-oxa-7,9-diazabicyclo[3.3.1]nonane-9-carboxylate] it was 10 to 100 nM; in that of `CSc1nc(N2C[C@@H](C)N(C(=O)OC3CC4(C3)CN(Cc3ccccc3)C4)[C@@H](C)C2)ncc1Br` [Compound 169, 2-benzyl-2-azaspiro[3.3]heptan-6-yl (2R,6S)-4-[5-bromo-4-(methylsulfanyl)pyrimidin-2-yl]-2,6-dimethylpiperazine-1-carboxylate], 10 to 100 nM. Regarding `CSc1nc(N2C[C@@H](C)N(C(=O)OC3CC4(C3)CN(Cc3ccccc3)C4)[C@H](C)C2)ncc1Br` [Compound 170, 2-benzyl-2-azaspiro[3.3]heptan-6-yl (2R,6R)-4-[5-bromo-4-(methylsulfanyl)pyrimidin-2-yl]-2,6-dimethylpiperazine-1-carboxylate], the Ki was 10 to 100 nM.

In the case of `COC(=O)c1cnc(N2C[C@@H](C)N(C(=O)OC3CC4(C3)CN(Cc3ccccc3)C4)[C@H](C)C2)nc1C(F)(F)F` [Compound 171, methyl 2-[(3R,5R)-4-[({2-benzyl-2-azaspiro[3.3]heptan-6-yl}oxy)carbonyl]-3,5-dimethylpiperazin-1-yl]-4-(trifluoromethyl)pyrimidine-5-carboxylate], the Ki was < 10 nM. For the compound `C[C@@H]1CN(c2cnc3ccccc3n2)C[C@H](C)N1C(=O)OC1CC2(C1)CN(Cc1ccccc1)C2` [Compound 172, 2-benzyl-2-azaspiro[3.3]heptan-6-yl (2R,6S)-2,6-dimethyl-4-(quinoxalin-2-yl)piperazine-1-carboxylate], the Ki fell in the range of 10 to 100 nM. On the same count and under the same terms, in the case of `COc1ccc2nc(N3C[C@@H](C)N(C(=O)OC4CC5(C4)CN(Cc4ccccc4)C5)C[C@@H]3C)cnc2c1` [Compound 173, 2-benzyl-2-azaspiro[3.3]heptan-6-yl (2R,5S)-4-(6-methoxyquinoxalin-2-yl)-2,5-dimethylpiperazine-1-carboxylate] it was 10 to 100 nM; in that of `Cc1nc(C#N)cnc1N1C[C@@H](C)N(C(=O)OC2CC3(C2)CN(Cc2ccccc2)C3)[C@@H](C)C1` [Compound 181, 2-benzyl-2-azaspiro[3.3]heptan-6-yl (2R,6S)-4-(5-cyano-3-methylpyrazin-2-yl)-2,6-dimethylpiperazine-1-carboxylate], 100 to 1000 nM; in that of `C[C@@H]1CN(c2cnc3ccccc3n2)C[C@@H](C)N1C(=O)OC1CC2(C1)CN(Cc1ccccc1)C2` [Compound 185, 2-benzyl-2-azaspiro[3.3]heptan-6-yl (2R,6R)-2,6-dimethyl-4-(quinoxalin-2-yl)piperazine-1-carboxylate], 100 to 1000 nM. Still for that read-out and setting: the result for `C[C@@H]1CN(c2cnc3ccccc3n2)[C@@H](C)CN1C(=O)OC1CC2(C1)CN(Cc1ccccc1)C2` [Compound 187, 2-benzyl-2-azaspiro[3.3]heptan-6-yl (2R,5S)-2,5-dimethyl-4-(quinoxalin-2-yl)piperazine-1-carboxylate] reads < 10 nM; that for `C[C@@H]1CN(c2ncccc2C(F)(F)F)C[C@@H](C)N1C(=O)OC1CC2(C1)CN(Cc1ccccc1)C2` [Compound 190, 2-benzyl-2-azaspiro[3.3]heptan-6-yl (2R,6R)-2,6-dimethyl-4-[3-(trifluoromethyl)pyridin-2-yl)piperazine-1-carboxylate], 100 to 1000 nM; that for `C[C@@H]1CN(c2ccc(C(F)(F)F)nc2)C[C@H](C)N1C(=O)OC1CC2(C1)CN(Cc1ccccc1)C2` [Compound 191, 2-bnezyl-2-azaspiro[3.3]heptan-6-yl (2R,6S)-2,6-dimethyl-4-[6-(trifluoromethyl)pyridin-3-yl]piperazine-1-carboxylate], 10 to 100 nM. The same measure, in the same setting: the result for `C[C@@H]1CN(c2cncc(C(F)(F)F)n2)[C@@H](C)CN1C(=O)OC1CC2(C1)CN(Cc1ccccc1)C2` [Compound 194, 2-benzyl-2-azaspiro[3.3]heptan-6-yl (2R,5S)-2,5-dimethyl-4-[6-(trifluoromethyl)pyrazin-2-yl]piperazine-1-carboxylate] reads 100 to 1000 nM.

Regarding `COc1ccc2nc(N3C[C@@H](C)N(C(=O)OC4CC5(C4)CN(Cc4ccccc4)C5)C[C@H]3C)cnc2c1` [Compound 201, 2-benzyl-2-azaspiro[3.3]heptan-6-yl (2R,5R)-4-(6-methoxyquinoxalin-2-yl)-2,5-dimethylpiperazine-1-carboxylate], the Ki was in the range of 100 to 1000 nM. Turning to `C[C@@H]1CN(c2cnc(OC(F)(F)F)cn2)C[C@H](C)N1C(=O)OC1CC2(C1)CN(Cc1ccccc1)C2` [Compound 202, 2-benzyl-2-azaspiro[3.3]heptan-6-yl (2R,6S)-2,6-dimethyl-4-[5-(trifluoromethoxy)pyrazin-2-yl]piperazine-1-carboxylate], the Ki is < 10 nM.

Turning to `C[C@@H]1CN(c2cnc(OC(F)(F)F)cn2)C[C@@H](C)N1C(=O)OC1CC2(C1)CN(Cc1ccccc1)C2` [Compound 203, 2-benzyl-2-azaspiro[3.3]heptan-6-yl (2R,6R)-2,6-dimethyl-4-[5-(trifluoromethoxy)pyrazin-2-yl]piperazine-1-carboxylate], the Ki is < 10 nM. Regarding `C[C@@H]1CN(c2cnc(OC(F)(F)F)cn2)[C@@H](C)CN1C(=O)OC1CC2(C1)CN(Cc1ccccc1)C2` [Compound 204, 2-benzyl-2-azaspiro[3.3]heptan-6-yl (2R,5S)-2,5-dimethyl-4-[5-(tifluoromethoxy)pyrazin-2-yl]piperazine-1-carboxylate], the Ki was < 10 nM.

Turning to `C[C@@H]1CN(c2cnc(OC(F)(F)F)cn2)[C@H](C)CN1C(=O)OC1CC2(C1)CN(Cc1ccccc1)C2` [Compound 205, 2-benzyl-2-azaspiro[3.3]heptan-6-yl (2R,5R)-2,5-dimethyl-4-[5-(trifluoromethoxy)pyrazin-2-yl]piperazine-1-carboxylate], the Ki lay within 10 to 100 nM.

The values are drawn from patent US20230129359A1, “MUSCARINIC RECEPTOR 4 ANTAGONISTS AND METHODS OF USE” (Neurocrine Biosciences, Inc., priority 2020, published 2023).
